Reference: ChEMBL document CHEMBL4052616, “Isoniazid derivatives and their anti-tubercular activity” (Eur J Med Chem, 2017)
≈ marks a conversion by molar mass, not a printed value.

Columns and labels:
Format in all cases: functional
[1] = tested on: Mycobacterium tuberculosis; assay: Antitubercular activity against Mycobacterium tuberculosis H37Rv after 10 days by tube dilution method; settings: 240 h
[2] = tested on: Mycobacterium tuberculosis; assay: Antimycobacterial activity against Bovin sensitive Mycobacterium tuberculosis measured after six weeks
[3] = tested on: Mycobacterium tuberculosis; assay: Antimycobacterial activity against human sensitive Mycobacterium tuberculosis measured after six weeks
[4] = tested on: Mycobacterium tuberculosis; assay: Antitubercular activity against Mycobacterium tuberculosis H37Rv
[5] = tested on: Mycobacterium tuberculosis; assay: Antimycobacterial activity against Mycobacterium tuberculosis H37Rv ATCC 27294 at < 0.1 ug/mL by microplate alamar blue assay
[6] = tested on: Mycobacterium tuberculosis; assay: Antimycobacterial activity against Mycobacterium tuberculosis H37Rv after 10 to 12 days by serial dilution method
Mycobacterium avium = assay: Antimycobacterial activity against Mycobacterium avium by serial dilution method
[7] = tested on: Mycolicibacterium fortuitum; assay: Antimycobacterial activity against Mycobacterium fortuitum by serial dilution method
Mycobacterium kansasii = assay: Antimycobacterial activity against Mycobacterium kansasii by serial dilution method
[8] = tested on: Mycobacterium intracellulare; assay: Antimycobacterial activity against Mycobacterium intracellulare by serial dilution method
Mycolicibacterium phlei = assay: Antimycobacterial activity against Mycobacterium phlei by serial dilution method
[9] = tested on: Mycolicibacterium smegmatis; assay: Antimycobacterial activity against Mycobacterium smegmatis ATCC 607 by serial dilution method
[10] = tested on: Mycobacterium tuberculosis; assay: Antimycobacterial activity against Mycobacterium tuberculosis H37Rv by NCCLS method
[11] = tested on: Mycobacterium tuberculosis; assay: Potency index, ratio of pyrazinamide MIC to compound MIC for Mycobacterium tuberculosis H37Rv
[12] = tested on: Mycobacterium tuberculosis; assay: Antimycobacterial activity against Mycobacterium tuberculosis H37Rv after 5 days by microplate alamar blue assay; settings: 120 h
[13] = tested on: Mycobacterium tuberculosis; assay: Growth inhibition of Mycobacterium tuberculosis H37Rv ATCC 27294 measured after 5 to 8 days
[14] = tested on: Mycobacterium tuberculosis; assay: Antimycobacterial activity against Mycobacterium tuberculosis H37Rv ATCC 27294 measured after 5 to 8 days
[15] = tested on: Mycobacterium tuberculosis; assay: Antimycobacterial activity against Mycobacterium tuberculosis infected in C57BL/6 mouse assessed as colony forming units per lung at 25 mg/kg administered via gavage for 2 days measured last post dose (reference value: 6.53 +/- 0.16 log10CFU)
[16] = tested on: Mycobacterium tuberculosis; assay: Antimycobacterial activity against Mycobacterium tuberculosis Academia by serial dilution method
[17] = tested on: Mycobacterium tuberculosis; assay: Antimycobacterial activity against Mycobacterium tuberculosis clinical isolate 35829 by broth dilution method
[18] = tested on: Mycobacterium tuberculosis; assay: Antimycobacterial activity against Mycobacterium tuberculosis clinical isolate 1889 by broth dilution method
[19] = tested on: Mycobacterium tuberculosis; assay: Antimycobacterial activity against Mycobacterium tuberculosis clinical isolate 303 by broth dilution method
[20] = tested on: Mycobacterium tuberculosis; assay: Antimycobacterial activity against Mycobacterium tuberculosis H37Rv by serial dilution method

O=C(NNc1nc(Cl)nc(NNC(=O)c2ccncc2)n1)c1ccncc1
MIC [1]: 20 µg/mL (≈ 51.8 µM)

O=C(N/N=C1\C(=O)N(Cc2ccccc2)c2ccccc21)c1ccncc1
MIC [2]: 2.7 to 3.5 µg/mL (≈ 7.58 to 9.82 µM) | MIC [3]: 2.7 to 3.5 µg/mL (≈ 7.58 to 9.82 µM)

O=C(NN1C(=O)C(Cl)C1c1cc2ccccc2nc1Cl)c1ccncc1 (configuration not stated)
MIC [4]: 12.5 µg/mL

C[C@]12CC/C(=N\NC(=O)c3ccncc3)C=C1CC[C@@H]1[C@@H]2CC[C@]2(C)/C(=N/NC(=O)c3ccncc3)CC[C@@H]12
inhibition (INH) [5]: >95%

Cc1ccc2nc(Cl)c(C3C(Cl)C(=O)N3NC(=O)c3ccncc3)cc2c1 (configuration not stated)
MIC [4]: 12.5 µg/mL

C[C@]12CC[C@H]3[C@@](CC[C@@H]4[C@]3(C)CCC[C@@]4(C)C(=O)O)(C/C1=N/NC(=O)c1ccncc1)C2
MIC [6]: 10 to 20 µg/mL (≈ 22.9 to 45.7 µM)

C[C@]12CC[C@@H](O)C[C@@H]1CC[C@@H]1[C@@H]2CC[C@]2(C)/C(=N/NC(=O)c3ccncc3)CC[C@@H]12
MIC (Mycobacterium avium): 3.5 to 1000 µg/mL (≈ 8.55 to 2440 µM) | MIC [7]: 3.5 to 1000 µg/mL (≈ 8.55 to 2440 µM) | MIC (Mycobacterium kansasii): 3.5 to 1000 µg/mL (≈ 8.55 to 2440 µM) | MIC [8]: 3.5 to 1000 µg/mL (≈ 8.55 to 2440 µM) | MIC (Mycolicibacterium phlei): 3.5 to 1000 µg/mL (≈ 8.55 to 2440 µM) | MIC [9]: 3.5 to 1000 µg/mL (≈ 8.55 to 2440 µM)

Cc1c(C(=O)NNC(=O)c2ccncc2)nn(-c2ccc(Cl)cc2Cl)c1-c1ccc(Cl)cc1
MIC [10]: 12.5 µg/mL (≈ 25 µM) | Ratio [11]: 2

COc1nc2ccc(Cl)cc2cc1C1C(Cl)C(=O)N1NC(=O)c1ccncc1 (configuration not stated)
MIC [4]: 3.12 to 6.25 µg/mL

COc1cc(C2SCC(=O)N2NC(=O)c2ccccc2)ccc1O (configuration not stated)
MIC [12]: 0.31 µg/mL (≈ 0.9 µM)

O=C(NNc1nc(Cl)nc(NC(=O)c2cnccn2)n1)c1ccncc1
MIC [1]: 20 µg/mL (≈ 53.8 µM)

CCn1cc(C(=O)O)c(=O)c2cc(F)c(N3CCN(CN4C(=O)/C(=N\NC(=O)c5ccncc5)c5ccccc54)CC3)cc21
growth inhibition (GI) [13]: 100% | MIC [14]: < 6.25 µg/mL

C=C1C[C@]23CC[C@@H]4[C@](C)(CCC[C@@]4(C)C(=O)O)[C@H]2CC[C@]1(O[C@@H]1O[C@H](CO)[C@@H](O)[C@H](O)[C@H]1O[C@@H]1O[C@H](CO)[C@@H](O)[C@H](O)[C@H]1O)C3
MIC [6]: 3.75 to 5 µg/mL (≈ 5.83 to 7.78 µM)

C=C1C[C@]23CC[C@@H]4[C@](C)(CCC[C@@]4(C)C(=O)NNc4cccnc4)[C@H]2CC[C@]1(O[C@@H]1O[C@H](COC(C)=O)[C@@H](OC(C)=O)[C@H](OC(C)=O)[C@H]1O[C@@H]1O[C@H](COC(C)=O)[C@@H](OC(C)=O)[C@H](OC(C)=O)[C@H]1O)C3
MIC [6]: 10 µg/mL (≈ 10.1 µM)

C[C@]12CC=CC[C@@H]1CC[C@@H]1[C@@H]2CC[C@]2(C)/C(=N/NC(=O)c3ccncc3)CC[C@@H]12
inhibition (INH) [5]: >95%

COc1ccc(/C=C2\SC(=O)N(CNNC(=O)c3ccncc3)C2=O)cc1
MIC [4]: 50 to 100 µg/mL

COc1nc2ccc(C)cc2cc1C1C(Cl)C(=O)N1NC(=O)c1ccncc1 (configuration not stated)
MIC [4]: 3.12 to 6.25 µg/mL

CC[C@@H](CO)NCCN[C@@H](CC)CO [ETHAMBUTOL]
MIC [10]: 3.25 µg/mL (≈ 15.9 µM)

COc1c(N2CCNC(C)C2)c(F)cc2c(=O)c(C(=O)O)cn(C3CC3)c12 (configuration not stated) [GATIFLOXACIN]
MIC [4]: 3.12 µg/mL

NNC(=O)c1ccncc1 [ISONIAZID]
MIC [10]: 0.05 µg/mL (≈ 0.365 µM) | Activity [15]: 5.34 log10CFU | MIC [4]: 1.45 µM | MIC [16]: 0.015 to 0.06 µg/mL (≈ 0.109 to 0.438 µM) | MIC [17]: 4 to 8 µg/mL (≈ 29.2 to 58.3 µM) | MIC [18]: 4 to 8 µg/mL (≈ 29.2 to 58.3 µM) | growth inhibition (GI) [13]: 95% | MIC [14]: 0.025 to 0.05 µg/mL (≈ 0.182 to 0.365 µM) | MIC [19]: 4 to 8 µg/mL (≈ 29.2 to 58.3 µM) | MIC [12]: 0.2 µg/mL (≈ 1.46 µM) | MIC [2]: 1.4 µg/mL (≈ 10.2 µM) | MIC [3]: 1.4 µg/mL (≈ 10.2 µM) | MIC [6]: 0.1 µg/mL (≈ 0.729 µM) | MIC [20]: 0.015 to 0.06 µg/mL (≈ 0.109 to 0.438 µM)

NC(=O)c1cnccn1 [PYRAZINAMIDE]
MIC [10]: 50 µg/mL (≈ 406 µM) | MIC [6]: 20 µg/mL (≈ 162 µM)

CO[C@H]1/C=C/O[C@@]2(C)Oc3c(C)c(O)c4c(O)c(c(/C=N/N5CCN(C)CC5)c(O)c4c3C2=O)NC(=O)/C(C)=C\C=C\[C@H](C)[C@H](O)[C@@H](C)[C@@H](O)[C@@H](C)[C@H](OC(C)=O)[C@@H]1C [RIFAMPIN]
MIC [10]: 0.1 µg/mL (≈ 0.122 µM) | growth inhibition (GI) [13]: 86% | MIC [14]: 0.25 µg/mL (≈ 0.304 µM) | MIC [12]: 1 µg/mL (≈ 1.22 µM)
